This assay concerns mixture in equal parts of Salmonella ser. Newport, Salmonella ser. Senftenberg, and Salmonella ser. Typhimurium. The assay can be described thus: Salmonella inhibition in inoculated poultry fat (Examples 2, 4 and 5). Type of assay: cell-based, Salmonella enterica subsp. enterica. Conditions: 1000 ppm in fat; 1 month after inoculation. From the text: Bacterial strains and culture medium Six serovars of Salmonella enterica subsp. enterica were used in these studies: Salmonella ser. Infantis (CIP103549), Salmonella ser. Mbandaka (CIP105859), and Salmonella ser. Senftenberg (isolate from pork/poultry from ANSES collection) for Example 1, Example 3 and Example 6 or Salmonella ser. Newport, Salmonella ser. Senftenberg, and Salmonella ser. Typhimurium (all isolated from pet food) for Example 2, Example 4, and Example 5. All strains were kept in collection at -80° C. in glycerol broth. Bacterial strains were cultured in Brain Heart Infusion agar and subcultured in Brain Heart Infusion broth at 37° C. for 20±2 h (BHI, VWR, USA). Salmonella count in poultry fat was carried out using Xylose Lysine Deoxycholate agar (XLD, VWR, USA) for Example 1, Example 3, and Example 6 or Violet Red Bile Glucose agar (VRBG, BioRad, USA) for Example 2, Example 4 and Example 5. Salmonella detection was done following modified EN ISO 6579-1 in 125 g of poultry fat.
Inoculum preparation Two types of matrix inoculum were used. […]
Antimicrobial efficacy of Compositions 5, 6, 7, 8, 16 was tested when added at 500 ppm in fat and compared to antimicrobial efficacy of phosphoric acid (Composition 1) when added at 1000 ppm in fat. The antimicrobial efficacy of Composition 16 at 1000 ppm in fat was also evaluated. […]

On to `O=P(O)(O)O` [Composition 1, Phosphoric acid], for which the Salmonella detection result was “still detected”.

These data come from US20230105082A1, “ANTIMICROBIAL COMPOSITIONS FOR PET FOOD PRODUCTS” (priority 2020, published 2023).
